According to ChEMBL document CHEMBL1743141, “Membrane transporters in drug development” (Nat Rev Drug Discov, 2010):
Peptide text beside a SMILES is read from it.

What was measured:
Format in all cases: ADME
[1] = target: T1, Solute carrier organic anion transporter family member 1B1 (Homo sapiens, UniProt Q9Y6L6); experiment: Inhibitors of transporters of clinical importance in the absorption and disposition of drugs, OATP1B1
T1 sequence (Q9Y6L6 whole entry): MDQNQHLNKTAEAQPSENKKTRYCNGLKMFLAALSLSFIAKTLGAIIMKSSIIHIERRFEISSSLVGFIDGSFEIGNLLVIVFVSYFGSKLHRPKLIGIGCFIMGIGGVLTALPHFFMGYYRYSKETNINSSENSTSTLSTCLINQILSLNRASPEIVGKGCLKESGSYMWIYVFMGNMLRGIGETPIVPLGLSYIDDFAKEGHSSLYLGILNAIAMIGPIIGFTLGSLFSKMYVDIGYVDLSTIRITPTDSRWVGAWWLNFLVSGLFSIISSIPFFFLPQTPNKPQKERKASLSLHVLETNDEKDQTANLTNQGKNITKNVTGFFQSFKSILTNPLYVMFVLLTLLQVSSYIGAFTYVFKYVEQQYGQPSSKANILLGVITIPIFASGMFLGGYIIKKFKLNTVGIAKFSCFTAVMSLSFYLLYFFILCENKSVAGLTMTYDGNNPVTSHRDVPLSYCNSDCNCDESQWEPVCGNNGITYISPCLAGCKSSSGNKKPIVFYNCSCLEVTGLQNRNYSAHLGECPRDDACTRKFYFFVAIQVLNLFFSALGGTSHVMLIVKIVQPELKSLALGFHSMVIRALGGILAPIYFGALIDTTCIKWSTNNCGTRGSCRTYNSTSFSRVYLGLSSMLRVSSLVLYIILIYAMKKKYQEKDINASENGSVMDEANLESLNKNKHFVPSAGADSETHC

[2] = target: T2, Solute carrier organic anion transporter family member 1B3 (Homo sapiens, UniProt Q9NPD5); experiment: Inhibitors of transporters of clinical importance in the absorption and disposition of drugs, OATP1B3
T2 sequence (Q9NPD5 whole entry): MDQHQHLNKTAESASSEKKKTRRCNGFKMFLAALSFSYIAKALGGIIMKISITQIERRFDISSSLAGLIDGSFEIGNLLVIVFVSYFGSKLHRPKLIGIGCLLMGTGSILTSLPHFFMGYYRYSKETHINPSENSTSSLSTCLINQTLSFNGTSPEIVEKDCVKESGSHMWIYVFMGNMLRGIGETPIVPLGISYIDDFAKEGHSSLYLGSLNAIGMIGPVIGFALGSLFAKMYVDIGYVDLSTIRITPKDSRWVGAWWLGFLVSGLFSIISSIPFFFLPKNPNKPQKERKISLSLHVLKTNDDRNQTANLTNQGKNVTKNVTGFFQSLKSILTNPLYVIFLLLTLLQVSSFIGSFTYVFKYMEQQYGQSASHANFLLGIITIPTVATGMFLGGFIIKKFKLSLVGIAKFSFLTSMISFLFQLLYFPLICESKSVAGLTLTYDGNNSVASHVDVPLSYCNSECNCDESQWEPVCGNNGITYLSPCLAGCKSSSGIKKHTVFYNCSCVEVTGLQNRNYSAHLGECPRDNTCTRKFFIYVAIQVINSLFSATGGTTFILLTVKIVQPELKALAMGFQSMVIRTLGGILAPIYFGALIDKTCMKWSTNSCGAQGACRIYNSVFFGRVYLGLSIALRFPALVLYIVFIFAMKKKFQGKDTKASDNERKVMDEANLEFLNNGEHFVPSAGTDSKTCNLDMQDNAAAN

[3] = target: T3, Solute carrier organic anion transporter family member 1A2 (Homo sapiens, UniProt P46721); experiment: Inhibitors of transporters of clinical importance in the absorption and disposition of drugs, OATP1A2
T3 sequence (P46721 whole entry): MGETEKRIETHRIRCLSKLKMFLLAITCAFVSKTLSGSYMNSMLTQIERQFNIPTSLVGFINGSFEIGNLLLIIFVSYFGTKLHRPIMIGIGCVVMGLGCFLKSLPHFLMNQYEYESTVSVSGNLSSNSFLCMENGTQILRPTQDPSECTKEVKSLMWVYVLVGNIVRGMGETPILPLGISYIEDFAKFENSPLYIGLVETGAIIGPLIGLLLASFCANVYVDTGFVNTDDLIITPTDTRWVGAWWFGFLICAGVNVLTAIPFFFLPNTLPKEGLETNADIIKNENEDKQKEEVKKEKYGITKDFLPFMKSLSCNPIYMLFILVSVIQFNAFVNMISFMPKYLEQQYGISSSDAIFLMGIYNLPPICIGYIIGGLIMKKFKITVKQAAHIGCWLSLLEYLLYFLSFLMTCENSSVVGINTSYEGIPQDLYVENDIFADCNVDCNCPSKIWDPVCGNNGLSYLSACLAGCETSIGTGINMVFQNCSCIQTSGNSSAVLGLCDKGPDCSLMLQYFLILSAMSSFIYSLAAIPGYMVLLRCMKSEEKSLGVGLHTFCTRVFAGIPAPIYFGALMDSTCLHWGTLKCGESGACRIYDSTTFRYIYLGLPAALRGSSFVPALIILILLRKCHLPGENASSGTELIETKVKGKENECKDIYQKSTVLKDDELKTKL

[4] = target: T4, Solute carrier organic anion transporter family member 2B1 (Homo sapiens, UniProt O94956); experiment: Inhibitors of transporters of clinical importance in the absorption and disposition of drugs, OATP2B1
T4 sequence (O94956 whole entry): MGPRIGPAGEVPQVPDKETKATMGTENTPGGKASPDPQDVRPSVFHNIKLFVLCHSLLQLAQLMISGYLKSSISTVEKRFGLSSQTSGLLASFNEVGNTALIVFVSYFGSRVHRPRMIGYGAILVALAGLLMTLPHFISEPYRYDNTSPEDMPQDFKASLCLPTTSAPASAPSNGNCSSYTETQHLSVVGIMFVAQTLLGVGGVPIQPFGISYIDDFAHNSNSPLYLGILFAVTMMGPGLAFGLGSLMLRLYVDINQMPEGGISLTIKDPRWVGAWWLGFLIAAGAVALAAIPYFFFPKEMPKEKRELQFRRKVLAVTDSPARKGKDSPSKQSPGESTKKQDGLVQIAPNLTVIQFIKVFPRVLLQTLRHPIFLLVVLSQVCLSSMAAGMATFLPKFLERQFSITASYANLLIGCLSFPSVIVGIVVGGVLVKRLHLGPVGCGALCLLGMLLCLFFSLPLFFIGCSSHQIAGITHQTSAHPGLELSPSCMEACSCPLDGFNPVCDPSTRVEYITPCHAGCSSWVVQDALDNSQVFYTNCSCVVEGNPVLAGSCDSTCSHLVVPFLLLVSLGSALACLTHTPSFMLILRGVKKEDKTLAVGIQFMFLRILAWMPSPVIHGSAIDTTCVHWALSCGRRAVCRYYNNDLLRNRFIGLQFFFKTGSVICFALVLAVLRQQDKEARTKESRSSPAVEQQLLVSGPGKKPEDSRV

Bile salt export pump = Bile salt export pump (Homo sapiens, UniProt O95342); experiment: Inhibitors of transporters of clinical importance in the absorption and disposition of drugs, BSEP
[5] = target: T5, Solute carrier family 15 member 1 (Homo sapiens, UniProt P46059); experiment: Inhibitors of transporters of clinical importance in the absorption and disposition of drugs, PEPT1
T5 sequence (P46059 whole entry): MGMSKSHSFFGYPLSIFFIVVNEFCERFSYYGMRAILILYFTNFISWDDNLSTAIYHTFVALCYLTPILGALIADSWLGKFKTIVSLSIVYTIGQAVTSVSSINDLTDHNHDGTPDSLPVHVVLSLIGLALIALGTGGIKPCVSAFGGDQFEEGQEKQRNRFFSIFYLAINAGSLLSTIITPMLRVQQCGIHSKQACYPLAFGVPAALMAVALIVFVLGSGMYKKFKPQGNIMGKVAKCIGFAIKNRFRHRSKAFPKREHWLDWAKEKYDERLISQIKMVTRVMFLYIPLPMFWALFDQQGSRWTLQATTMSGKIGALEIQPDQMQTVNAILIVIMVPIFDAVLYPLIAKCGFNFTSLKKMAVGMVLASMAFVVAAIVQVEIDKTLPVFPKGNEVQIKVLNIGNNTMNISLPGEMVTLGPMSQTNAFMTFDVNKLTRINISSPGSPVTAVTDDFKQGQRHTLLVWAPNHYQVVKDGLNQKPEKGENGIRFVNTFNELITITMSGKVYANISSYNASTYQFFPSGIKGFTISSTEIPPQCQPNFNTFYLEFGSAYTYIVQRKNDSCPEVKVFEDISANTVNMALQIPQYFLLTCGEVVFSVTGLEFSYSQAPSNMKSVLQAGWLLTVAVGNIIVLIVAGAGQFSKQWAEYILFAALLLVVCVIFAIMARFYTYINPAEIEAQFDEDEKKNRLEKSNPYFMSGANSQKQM

Measured: Activity

Chain of Bile salt export pump (O95342 whole entry): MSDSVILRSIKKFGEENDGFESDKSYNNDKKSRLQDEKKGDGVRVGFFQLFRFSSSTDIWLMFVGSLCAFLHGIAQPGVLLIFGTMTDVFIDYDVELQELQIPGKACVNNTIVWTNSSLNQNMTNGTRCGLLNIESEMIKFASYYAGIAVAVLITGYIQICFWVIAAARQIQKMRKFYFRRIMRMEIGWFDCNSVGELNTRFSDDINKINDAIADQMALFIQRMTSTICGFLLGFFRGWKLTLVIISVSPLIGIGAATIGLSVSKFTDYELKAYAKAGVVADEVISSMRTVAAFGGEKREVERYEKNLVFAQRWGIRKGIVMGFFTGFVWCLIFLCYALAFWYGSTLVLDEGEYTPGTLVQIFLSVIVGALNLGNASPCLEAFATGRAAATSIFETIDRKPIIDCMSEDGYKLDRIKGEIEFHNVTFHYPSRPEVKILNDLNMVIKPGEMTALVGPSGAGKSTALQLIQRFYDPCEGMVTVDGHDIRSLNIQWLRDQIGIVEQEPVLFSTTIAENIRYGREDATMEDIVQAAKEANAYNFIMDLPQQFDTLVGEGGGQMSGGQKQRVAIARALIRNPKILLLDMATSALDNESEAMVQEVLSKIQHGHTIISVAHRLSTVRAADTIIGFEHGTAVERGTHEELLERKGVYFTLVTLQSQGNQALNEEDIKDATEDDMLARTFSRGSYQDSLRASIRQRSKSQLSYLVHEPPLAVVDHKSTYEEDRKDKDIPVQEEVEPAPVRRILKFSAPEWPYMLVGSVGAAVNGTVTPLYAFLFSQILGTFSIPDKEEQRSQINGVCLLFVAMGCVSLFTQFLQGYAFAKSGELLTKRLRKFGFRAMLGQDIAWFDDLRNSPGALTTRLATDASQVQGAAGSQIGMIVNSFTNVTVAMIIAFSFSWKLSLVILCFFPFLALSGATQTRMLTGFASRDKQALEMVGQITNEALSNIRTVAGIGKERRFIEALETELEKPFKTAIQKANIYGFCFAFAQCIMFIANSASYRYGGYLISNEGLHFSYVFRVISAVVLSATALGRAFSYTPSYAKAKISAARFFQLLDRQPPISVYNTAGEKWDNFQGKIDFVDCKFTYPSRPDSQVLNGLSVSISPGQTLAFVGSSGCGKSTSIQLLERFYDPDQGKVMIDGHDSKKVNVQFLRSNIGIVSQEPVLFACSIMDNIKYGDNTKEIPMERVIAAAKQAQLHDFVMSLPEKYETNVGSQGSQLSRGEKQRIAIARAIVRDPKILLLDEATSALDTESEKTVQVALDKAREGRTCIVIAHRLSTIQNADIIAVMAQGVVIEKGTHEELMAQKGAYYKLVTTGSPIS

CO[C@H]1/C=C/O[C@@]2(C)Oc3c(C)c(O)c4c(O)c(c(/C=N/N5CCN(C)CC5)c(O)c4c3C2=O)NC(=O)/C(C)=C\C=C\[C@H](C)[C@H](O)[C@@H](C)[C@@H](O)[C@@H](C)[C@H](OC(C)=O)[C@@H]1C [RIFAMPIN]
not listed: [5]
transporter inhibitor: all other assays above

NCC(=O)N1CCC[C@H]1C(=O)O [GLYCYL PROLINE] (H-Gly-Pro-OH)
transporter inhibitor: [5]
